Active and inactive are the calls of the source. The rule behind the calls is not given here.

For test [1], the target named is T1, Tyrosine-protein phosphatase non-receptor type 1 (Homo sapiens, UniProt P18031).
T1 sequence (P18031 whole entry): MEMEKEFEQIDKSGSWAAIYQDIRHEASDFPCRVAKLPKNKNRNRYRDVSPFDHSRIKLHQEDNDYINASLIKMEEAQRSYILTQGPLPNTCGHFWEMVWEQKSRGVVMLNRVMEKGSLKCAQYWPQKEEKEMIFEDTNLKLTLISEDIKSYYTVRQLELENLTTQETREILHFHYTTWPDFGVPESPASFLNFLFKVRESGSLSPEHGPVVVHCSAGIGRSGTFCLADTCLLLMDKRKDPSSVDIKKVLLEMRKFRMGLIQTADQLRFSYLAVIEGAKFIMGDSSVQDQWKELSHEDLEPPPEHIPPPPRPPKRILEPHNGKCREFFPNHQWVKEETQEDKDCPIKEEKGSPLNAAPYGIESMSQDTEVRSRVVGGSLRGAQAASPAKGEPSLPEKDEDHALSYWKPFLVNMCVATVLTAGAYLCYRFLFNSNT
The experiment in a line: Inhibition of Protein tyrosine phosphatase 1B (unknown origin) activity by spectrophotocolorimetric analysis.

For a further test, the species on record is Sus scrofa. The experiment in a line: (§1) Inhibition of porcine pancreatic alpha-amylase measured after 40 mins by spectrophotocolorimetric enzymatic assay.
Test [2] concerns the target T2, Pancreatic triacylglycerol lipase (Sus scrofa) (UniProt P00591).
T2 sequence (whole entry): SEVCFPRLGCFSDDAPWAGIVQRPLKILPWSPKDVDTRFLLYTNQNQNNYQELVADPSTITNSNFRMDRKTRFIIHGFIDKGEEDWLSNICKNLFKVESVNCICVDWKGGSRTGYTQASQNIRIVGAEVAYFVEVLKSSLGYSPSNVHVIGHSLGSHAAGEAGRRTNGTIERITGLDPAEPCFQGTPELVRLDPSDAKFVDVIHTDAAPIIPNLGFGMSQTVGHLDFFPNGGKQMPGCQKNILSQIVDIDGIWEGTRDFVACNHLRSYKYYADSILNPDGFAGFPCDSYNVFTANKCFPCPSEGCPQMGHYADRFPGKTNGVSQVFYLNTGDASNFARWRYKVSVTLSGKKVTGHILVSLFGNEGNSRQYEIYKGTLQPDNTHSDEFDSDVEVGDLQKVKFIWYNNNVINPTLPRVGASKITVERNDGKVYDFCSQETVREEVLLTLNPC
The test can be described thus: Inhibition of porcine pancreatic lipase measured after 40 mins by spectrophotocolorimetric enzymatic assay.

A short description of test [3]: as §1. On the set-up: species or system Sus scrofa.
Test [4] deals with Mus musculus. The experiment in a line: Hypoglycemic effect in normoglycemic mouse assessed as decrease in blood glucose level at 5 to 50 mg/kg, po measured upto 5 hrs after administration. In kind it is functional, organism-based. Particulars: dose 5-50 mg/kg.
For test [5], the system named is Mus musculus. The test can be described thus: Antihyperglycemic activity in normoglycemic mouse assessed as decrease in at 50 mg/kg, po measured upto 120 min after administration by oral glucose tolerance test. Type of test: functional, organism-based.
In test [6] the test system is Mus musculus. The test can be described thus: Antihyperglycemic activity in STZ-hyperglycemic mouse assessed as decrease in at 50 mg/kg, po measured upto 120 min after administration by oral glucose tolerance test. In kind it is functional, organism-based.
The subject of test [7] is Mus musculus. The test can be described thus: Antihyperglycemic activity in STZ-induced hyperglycemic CD1 mouse model assessed as reduction in blood glucose AUC at 50 mg/kg, ip measured upto 120 min intraperitoneal by insulin tolerance test. Type of test: functional, organism-based.
The test system of test [8] is Mus musculus. The test can be described thus: Antihyperglycemic activity in STZ-hyperglycemic mouse assessed as decrease in blood glucose level at 150 mg/kg, po measured upto 5 hrs after administration. Type of test: functional, organism-based.

In test [1], `CC(=O)O[C@@H]1[C@@H](OC(C)=O)[C@H](OC(=O)[C@]2(C)CCC[C@@]3(C)[C@@H]4[C@@H](O)[C@@H]5C(=O)C[C@]4(C=C5C)CC[C@@H]32)O[C@H](CO)[C@H]1O[C@@H]1OC[C@H](O)[C@H](O)[C@H]1O` gave an IC50 of 532 µM. In addition, the inhibition result (in the test listed under Sus scrofa; in [2]) was “inactive” each time.

`C[C@H]1O[C@H](O[C@H]2[C@H](O)[C@@H](O)[C@@H](O[C@H]3[C@H](O)[C@@H](O)C(O)O[C@@H]3CO)O[C@@H]2CO)[C@H](O)[C@@H](O)[C@@H]1N[C@H]1C=C(CO)[C@@H](O)[C@H](O)[C@H]1O` (stereo partly specified) [ACARBOSE] showed an IC50 in [3] of 3.2 µM.

As to `CC(=O)O[C@@H]1[C@@H](OC(C)=O)[C@H](OC(=O)[C@]2(C)CCC[C@@]3(C)[C@@H]4[C@@H](O)C[C@@H]5C[C@@]4(CC[C@@H]32)C[C@@]5(O)CO)O[C@H](CO)[C@H]1O[C@@H]1OC[C@H](O)[C@H](O)[C@H]1O`, the IC50 in test [1] is 31.8 µM. Also, the inhibition result (in the test listed under Sus scrofa; in [2]) was “inactive” throughout.

Regarding `C=C1[C@@H]2CC[C@H]3[C@]4(C)CCC[C@@](C)(C(=O)O[C@@H]5O[C@H](CO)[C@@H](O[C@@H]6OC[C@H](O)[C@H](O)[C@H]6O)[C@H](OC(C)=O)[C@H]5OC(C)=O)[C@H]4CC[C@]3(C2)[C@H]1O[C@@H]1O[C@H](CO)[C@@H](O)[C@H](O)[C@H]1O`, the IC50 in test [1] amounted to 928 µM. The inhibition entry (in the test filed under Sus scrofa; in test [2]) was “inactive” throughout.

Take `CC(=O)O[C@@H]1CC[C@]2(C)[C@H]3CCC4=C([C@@H](C)CCC=C(C)C)CC[C@@]4(C)[C@]3(C)CC[C@H]2C1(C)C`: in test [1], the IC50 stood at 1180 µM. Also, the inhibition entry (in the test filed under Sus scrofa; in test [2]) was “inactive” each time.

With `C=C1C[C@@]23CC[C@H]4[C@@](C)(CCC[C@@]4(C)C(=O)O[C@@H]4O[C@H](CO)[C@@H](O[C@@H]5OC[C@H](O)[C@H](O)[C@H]5O)[C@H](OC(C)=O)[C@H]4OC(C)=O)[C@@H]2[C@@H](O)[C@@H]1C(=O)C3`, the result with Mus musculus [4], in the test on Mus musculus [5], with Mus musculus [6], with Mus musculus [7] and in the test with Mus musculus [8] was Active. In addition, the IC50 in test [1] is 527 µM. The inhibition result (in the test filed under Sus scrofa; in [2]) was “inactive” each time.

(Values after ChEMBL document CHEMBL5344421, “Chemical Analysis and Antidiabetic Potential of a Decoction from Stevia serrata Roots” (J Nat Prod, 2024).)
